# Laboratory results published in patent US12446584B2, “Termiticide composition and methods for treating termites” (ADAMA MAKHTESHIM LTD., priority 2013, dated 2025).
# Read-outs that look alike come from different tables or passages of the source.
# Experiments:
# Format in all cases: in vivo
# [1] = tested on: Eastern subterranean termites (Reticulitermes flavipes); test: Thin plate bioassay
# Protocol: (§1) A laboratory study was conducted, using recently collected R. flavipes and C. formosanus. Thin plate bioassays were assembled using 0.6 cm glass and 0.6 cm clear Lexan. A sheet of 20.3×66 cm glass was used for the bottom. Two pieces of 2.5×61 cm glass were laid along the long edges, and two pieces of […]. Each arena had 450 g of screened sand evenly applied, and moistened with deionized water to help hold it in place during construction of the arenas. Fisher brand tongue depressors, cut in half, were used as a food source for the termites, and placed at one end of the arena. Prior to adding the Lexan top sheets, 0.6 cm holes were drilled at one end, and three 0.6 cm treatment apertures were drilled equally spaced apart at the center line. One 8 cm Petri dish with a 0.6 cm hole drilled in the bottom was lined up with the hole at the end of the top sheet, and glued down. Glue was allowed to dry for 72 hours. Large binder clips were used to hold the arena together.
# (§2) Termiticide solutions were prepared as follows: Fipronil 0.017%; Fipronil 0.03%; Imidacloprid 0.05%; Imi-Fip 0.067% (Imidacloprid 0.05%, Fipronil 0.017%); and Untreated Control (water only). Ten ml of each finished solution of termiticide were applied to each arena: each of the three treatment apertures received 3.3 ml of termiticide. The treatments were allowed to dry for 24 hours, and the treatment apertures were covered with a 2.5×7.5 cm microscope slide. In each Petri dish, 500 worker and 15 soldier termites were added, using either R. flavipes or C. formosanus. Each treatment was replicated four times. Data regarding distance tunneled and mortality were collected daily for eight days. Data was analyzed using Analysis of Variance (ANOVA) and means were separated by Tukey's HSD (Honest Significant Difference test (IBM SPSS v 19).
# [2] = tested on: Formosan subterranean termites (Coptotermes formosanus); test: Thin plate bioassay
# Protocol: as §1, §2
# [3] = tested on: Eastern Subterranean Reticulitermes flavipes termites; test: Transfer effects among nestmates (donor/recipient Petri dish arenas); conditions: Reticulitermes flavipes, donors treated with 50 ppm
# Protocol: (§3) The purpose of this study was to determine whether there is transference of […] among nestmates of subterranean termites. Arenas for this study consisted of a 15 cm Petri dish. […] Donor and untreated marked control termites were marked using RustOleum® Marking Paint, using methodology described by Keefer et al. 2012.
# (§4) Two untreated soldier termites for each species were added to each arena to simulate colony dynamics. Post-treatment observations for mortality were made at 4 h and then daily through day 7.
# [4] = tested on: Formosan Coptotermes formosanus termites; test: as above; conditions: donors treated with 50 ppm; for mortality at 50 ppm: Coptotermes formosanus
# Protocol: as §3, §4
# [5] = 0.017% solution, 1 day post-treatment
# [6] = 0.017% solution, 2 days post-treatment
# [7] = 0.017% solution, 3 days post-treatment
# [8] = 0.017% solution, 4 days post-treatment
# [9] = 0.017% solution, 5 days post-treatment
# [10] = 0.017% solution, 6 days post-treatment
# [11] = 0.017% solution, 7 days post-treatment
# [12] = 0.017% solution, 8 days post-treatment
# [13] = 0.03% solution, 1 day post-treatment
# [14] = 0.03% solution, 2 days post-treatment
# [15] = 0.03% solution, 3 days post-treatment
# [16] = 0.03% solution, 4 days post-treatment
# [17] = 0.03% solution, 5 days post-treatment
# [18] = 0.03% solution, 6 days post-treatment
# [19] = 0.03% solution, 7 days post-treatment
# [20] = 0.03% solution, 8 days post-treatment
# [21] = 4 h, donor:recipient ratio 1:19, 4 h, read-out: Mean total % mortality of donors and recipients
# [22] = 4 h, donor:recipient ratio 5:15, 4 h, read-out: Mean total % mortality of donors and recipients
# [23] = 4 h, donor:recipient ratio 10:10, 4 h, read-out: Mean total % mortality of donors and recipients
# [24] = 4 h, donor:recipient ratio 15:5, 4 h, read-out: Mean total % mortality of donors and recipients
# [25] = 24 h, by treatment (all ratios), 1 d, read-out: Mean % mortality of donors and recipients
# [26] = 24 h, donor:recipient ratio 1:19, 1 d, read-out: Mean total % mortality of donors and recipients
# [27] = 24 h, donor:recipient ratio 5:15, 1 d, read-out: Mean total % mortality of donors and recipients
# [28] = 24 h, donor:recipient ratio 10:10, 1 d, read-out: Mean total % mortality of donors and recipients
# [29] = 24 h, donor:recipient ratio 15:5, 1 d, read-out: Mean total % mortality of donors and recipients
# [30] = 48 h, by treatment (all ratios), 2 d, read-out: Mean % mortality of donors and recipients
# [31] = 48 h, donor:recipient ratio 1:19, 2 d, read-out: Mean total % mortality of donors and recipients
# [32] = 48 h, donor:recipient ratio 5:15, 2 d, read-out: Mean total % mortality of donors and recipients
# [33] = 48 h, donor:recipient ratio 10:10, 2 d, read-out: Mean total % mortality of donors and recipients
# [34] = 48 h, donor:recipient ratio 15:5, 2 d, read-out: Mean total % mortality of donors and recipients
# [35] = 72 h, by treatment (all ratios), 3 d, read-out: Mean % mortality of donors and recipients
# [36] = 72 h, donor:recipient ratio 1:19, 3 d, read-out: Mean total % mortality of donors and recipients
# [37] = 72 h, donor:recipient ratio 5:15, 3 d, read-out: Mean total % mortality of donors and recipients
# [38] = 72 h, donor:recipient ratio 10:10, 3 d, read-out: Mean total % mortality of donors and recipients
# [39] = 72 h, donor:recipient ratio 15:5, 3 d, read-out: Mean total % mortality of donors and recipients
# [40] = 96 h, by treatment (all ratios), 4 d, read-out: Mean % mortality of donors and recipients
# [41] = 96 h, donor:recipient ratio 1:19, 4 d, read-out: Mean total % mortality of donors and recipients
# [42] = 96 h, donor:recipient ratio 5:15, 4 d, read-out: Mean total % mortality of donors and recipients
# [43] = 96 h, donor:recipient ratio 10:10, 4 d, read-out: Mean total % mortality of donors and recipients
# [44] = 96 h, donor:recipient ratio 15:5, 4 d, read-out: Mean total % mortality of donors and recipients
# [45] = 120 h, by treatment (all ratios), 5 d, read-out: Mean % mortality of donors and recipients
# [46] = 120 h, donor:recipient ratio 1:19, 5 d, read-out: Mean total % mortality of donors and recipients
# [47] = 120 h, donor:recipient ratio 5:15, 5 d, read-out: Mean total % mortality of donors and recipients
# [48] = 120 h, donor:recipient ratio 10:10, 5 d, read-out: Mean total % mortality of donors and recipients
# [49] = 120 h, donor:recipient ratio 15:5, 5 d, read-out: Mean total % mortality of donors and recipients
# [50] = 144 h, by treatment (all ratios), 6 d, read-out: Mean % mortality of donors and recipients
# [51] = 144 h, donor:recipient ratio 1:19, 6 d, read-out: Mean total % mortality of donors and recipients
# [52] = 144 h, donor:recipient ratio 5:15, 6 d, read-out: Mean total % mortality of donors and recipients
# [53] = 144 h, donor:recipient ratio 10:10, 6 d, read-out: Mean total % mortality of donors and recipients
# [54] = 144 h, donor:recipient ratio 15:5, 6 d, read-out: Mean total % mortality of donors and recipients
# [55] = 168 h, by treatment (all ratios), 7 d, read-out: Mean % mortality of donors and recipients
# [56] = 168 h, donor:recipient ratio 1:19, 7 d, read-out: Mean total % mortality of donors and recipients
# [57] = 168 h, donor:recipient ratio 5:15, 7 d, read-out: Mean total % mortality of donors and recipients
# [58] = 168 h, donor:recipient ratio 10:10, 7 d, read-out: Mean total % mortality of donors and recipients
# [59] = 168 h, donor:recipient ratio 15:5, 7 d, read-out: Mean total % mortality of donors and recipients
compound,measurement,setting,value
"N#Cc1nn(-c2c(Cl)cc(C(F)(F)F)cc2Cl)c(N)c1[S+]([O-])C(F)(F)F [Fipronil, 5-amino-1-[2,6-dichloro-4-(trifluoromethyl)phenyl]-4-[(1-R,S)(trifluoromethyl)sulfinyl]-1H-pyrazole-3-carbonitrile]",Mean % mortality,[1]; [5],5.25 a %
same,Mean % mortality,[1]; [6],30.50 a %
same,Mean % mortality,[1]; [7],75.00 a %
same,Mean % mortality,[1]; [8],77.50 a %
same,Mean % mortality,[1]; [9],90.00 b %
same,Mean % mortality,[1]; [10],95.50 b %
same,Mean % mortality,[1]; [11],100.00 a %
same,Mean % mortality,[1]; [12],100.00 a %
same,Mean % mortality,[1]; [13],0.75 b %
same,Mean % mortality,[1]; [14],2.25 b %
same,Mean % mortality,[1]; [15],67.50a %
same,Mean % mortality,[1]; [16],70.00 a %
same,Mean % mortality,[1]; [17],90.00 b %
same,Mean % mortality,[1]; [18],100.00 a %
same,Mean % mortality,[1]; [19],100.00 a %
same,Mean % mortality,[1]; [20],100.00 a %
same,Mean % mortality,[2]; [5],1.37 a %
same,Mean % mortality,[2]; [6],8.62 b %
same,Mean % mortality,[2]; [7],15.00 a %
same,Mean % mortality,[2]; [8],30.60 a %
same,Mean % mortality,[2]; [9],72.20 a %
same,Mean % mortality,[2]; [10],72.20 c %
same,Mean % mortality,[2]; [11],83.50 b %
same,Mean % mortality,[2]; [12],100.00a %
same,Mean % mortality,[2]; [13],5.05 a %
same,Mean % mortality,[2]; [14],17.25ab %
same,Mean % mortality,[2]; [15],19.75 a %
same,Mean % mortality,[2]; [16],49.40 a %
same,Mean % mortality,[2]; [17],70.50 a %
same,Mean % mortality,[2]; [18],99.25 a %
same,Mean % mortality,[2]; [19],100.00 a %
same,Mean % mortality,[2]; [20],100.00a %
same,mortality at 50 ppm,"[3]; 4 h, by treatment (all ratios), 4 h, read-out: Mean % mortality of donors and recipients",3.75%
same,mortality at 50 ppm,[3]; [21],3.75%
same,mortality at 50 ppm,[3]; [22],5%
same,mortality at 50 ppm,[3]; [23],1.25%
same,mortality at 50 ppm,[3]; [24],5%
same,mortality at 50 ppm,[3]; [25],23.5%
same,mortality at 50 ppm,[3]; [26],10%
same,mortality at 50 ppm,[3]; [27],17.5%
same,mortality at 50 ppm,[3]; [28],17.5%
same,mortality at 50 ppm,[3]; [29],56.2%
same,mortality at 50 ppm,[3]; [30],57.2%
same,mortality at 50 ppm,[3]; [31],16.2%
same,mortality at 50 ppm,[3]; [32],53.8%
same,mortality at 50 ppm,[3]; [33],71.2%
same,mortality at 50 ppm,[3]; [34],87.5%
same,mortality at 50 ppm,[3]; [35],70.3%
same,mortality at 50 ppm,[3]; [36],22.5%
same,mortality at 50 ppm,[3]; [37],70%
same,mortality at 50 ppm,[3]; [38],88.8%
same,mortality at 50 ppm,[3]; [39],100%
same,mortality at 50 ppm,[3]; [40],72.8%
same,mortality at 50 ppm,[3]; [41],26.2%
same,mortality at 50 ppm,[3]; [42],72.5%
same,mortality at 50 ppm,[3]; [43],92.5%
same,mortality at 50 ppm,[3]; [44],100%
same,mortality at 50 ppm,[3]; [45],83.8%
same,mortality at 50 ppm,[3]; [46],52.5%
same,mortality at 50 ppm,[3]; [47],82.5%
same,mortality at 50 ppm,[3]; [48],100%
same,mortality at 50 ppm,[3]; [49],100%
same,mortality at 50 ppm,[3]; [50],98.1%
same,mortality at 50 ppm,[3]; [51],97.5%
same,mortality at 50 ppm,[3]; [52],95%
same,mortality at 50 ppm,[3]; [53],100%
same,mortality at 50 ppm,[3]; [54],100%
same,mortality at 50 ppm,[3]; [55],100%
same,mortality at 50 ppm,[3]; [56],100%
same,mortality at 50 ppm,[3]; [57],100%
same,mortality at 50 ppm,[3]; [58],100%
same,mortality at 50 ppm,[3]; [59],100%
same,mortality at 50 ppm,[4]; [21],0%
same,mortality at 50 ppm,[4]; [22],3.75%
same,mortality at 50 ppm,[4]; [23],17.5%
same,mortality at 50 ppm,[4]; [24],16.2%
same,mortality at 50 ppm,[4]; [25],50.6%
same,mortality at 50 ppm,[4]; [26],0%
same,mortality at 50 ppm,[4]; [27],2.5%
same,mortality at 50 ppm,[4]; [28],100%
same,mortality at 50 ppm,[4]; [29],100%
same,mortality at 50 ppm,[4]; [30],53.1%
same,mortality at 50 ppm,[4]; [31],8.75%
same,mortality at 50 ppm,[4]; [32],3.75%
same,mortality at 50 ppm,[4]; [33],100%
same,mortality at 50 ppm,[4]; [34],100%
same,mortality at 50 ppm,[4]; [35],59.7%
same,mortality at 50 ppm,[4]; [36],18.8%
same,mortality at 50 ppm,[4]; [37],20%
same,mortality at 50 ppm,[4]; [38],100%
same,mortality at 50 ppm,[4]; [39],100%
same,mortality at 50 ppm,[4]; [40],67.8%
same,mortality at 50 ppm,[4]; [41],25%
same,mortality at 50 ppm,[4]; [42],46.2%
same,mortality at 50 ppm,[4]; [43],100%
same,mortality at 50 ppm,[4]; [44],100%
same,mortality at 50 ppm,[4]; [45],82.5%
same,mortality at 50 ppm,[4]; [46],30%
same,mortality at 50 ppm,[4]; [47],100%
same,mortality at 50 ppm,[4]; [48],100%
same,mortality at 50 ppm,[4]; [49],100%
same,mortality at 50 ppm,[4]; [50],85.5%
same,mortality at 50 ppm,[4]; [51],30%
same,mortality at 50 ppm,[4]; [52],100%
same,mortality at 50 ppm,[4]; [53],100%
same,mortality at 50 ppm,[4]; [54],100%
same,mortality at 50 ppm,[4]; [55],90%
same,mortality at 50 ppm,[4]; [56],60%
same,mortality at 50 ppm,[4]; [57],100%
same,mortality at 50 ppm,[4]; [58],100%
same,mortality at 50 ppm,[4]; [59],100%
same,Mean % mortality of donors and recipients,"[4]; by treatment (all ratios), 4 h",9.37 b %
same,Mean % mortality of donors and recipients,"[4]; by treatment (all ratios), 4 h, listed as fipronil",1%
